Among the test systems are ACHN renal; HCT-15 colon; NCI-H522 lung; CAKI-1 renal; KM20L2 colon; A549 NSCLC; RXF 393 renal; A498 renal; SNB-78 CNS; MDA-MB-435.
Assay in all cases: NCI tumour cell line growth inhibition, 48 h

From PubChem BioAssay (NCI) come the findings set out here.

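Briefly, cells in 96-well plates were exposed to five compound concentrations for 48 h, and endpoints were estimated by linear interpolation. Here, GI50 denotes the concentration required for 50% inhibition of growth. TGI: concentration producing complete growth inhibition.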 Bounds are passed on as bounds.

For the compound `O=S1c2ccccc2N=C(c2ccc3ccccc3c2)CC1C1=CC=CCC1` (stereo not given), the TGI with ACHN renal turned out to be 42.6 µM; in the experiment on HCT-15 colon, 35.7 µM; in the experiment with NCI-H522 lung, 33.2 µM; in the experiment with CAKI-1 renal it was 29.6 µM; in the experiment with KM20L2 colon, 37.2 µM; with A549 NSCLC, 91.2 µM. The TGI in the experiment with RXF 393 renal was 30.4 µM.
`COc1cc(/C=C2\[C@H]3c4c(c(OC)c(C)c(OC)c4OC)C[C@@H](C(=O)N2Cc2ccccc2)N3C(=O)OCC(C)C)c(OC)c(C)c1OC`: the TGI with ACHN renal, in the experiment with HCT-15 colon, in the experiment on NCI-H522 lung, in the experiment on CAKI-1 renal, with KM20L2 colon and with A498 renal was greater than 100 µM throughout. Further, the TGI in the experiment with A549 NSCLC and with RXF 393 renal was greater than 100 µM each time.
As for `C/C(=C\C(C)COCc1ccccc1)[C@H](COCc1ccccc1)OCc1ccccc1` (stereo not given in full), the TGI in the experiment on ACHN renal, in the experiment on HCT-15 colon, with NCI-H522 lung, in the experiment with KM20L2 colon, in the experiment with A498 renal and with SNB-78 CNS was greater than 100 µM throughout. For the same compound, the TGI in the experiment with A549 NSCLC and in the experiment on RXF 393 renal was greater than 100 µM in each case.
On to `CCOC12OC3=C(CC1CC1=C(CCC1=O)O2)C(=O)CC3` (stereo not given), for which the TGI with HCT-15 colon, with NCI-H522 lung, in the experiment with CAKI-1 renal, in the experiment with KM20L2 colon, in the experiment with A498 renal and in the experiment with SNB-78 CNS was greater than 100 µM throughout. Moreover, the TGI with A549 NSCLC and in the experiment on RXF 393 renal was greater than 100 µM each time.
For the compound `COc1cc2c3c(n(CCCCOC(=O)C(F)(F)F)c(=O)c2cc1OC)-c1cc2c(cc1C3=O)OCO2`, the GI50 is greater than 48.3 µM in the experiment on ACHN renal; greater than 100 µM with HCT-15 colon; greater than 21.8 µM in the experiment with CAKI-1 renal; greater than 100 µM in the experiment with MDA-MB-435; greater than 44.4 µM in the experiment on A498 renal; greater than 100 µM in the experiment with A549 NSCLC. In addition, the GI50 with RXF 393 renal was greater than 100 µM. Also, the TGI in the experiment on ACHN renal, in the experiment on HCT-15 colon, with NCI-H522 lung, with CAKI-1 renal, with MDA-MB-435 and with A498 renal was greater than 100 µM each time. Also, the TGI in the experiment with A549 NSCLC and in the experiment with RXF 393 renal was greater than 100 µM each time.
For `CCOC(=O)/C(O)=C(/c1n[nH]c(=O)c2ccccc12)[N+](=O)[O-]`, the TGI in the experiment with ACHN renal, in the experiment on HCT-15 colon, in the experiment on NCI-H522 lung, in the experiment with KM20L2 colon, in the experiment with A498 renal and in the experiment on SNB-78 CNS was greater than 100 µM throughout. In addition, the TGI with A549 NSCLC and with RXF 393 renal was greater than 100 µM each time.
Turning to `Cn1c2ccccc2c(=S)c2ccccc21`, the TGI in the experiment with ACHN renal, in the experiment with HCT-15 colon, in the experiment on NCI-H522 lung, in the experiment with CAKI-1 renal, in the experiment with MDA-MB-435 and in the experiment with A498 renal was greater than 100 µM in each case. The TGI in the experiment on A549 NSCLC and in the experiment on RXF 393 renal was greater than 100 µM in each case.
As for `O=c1/c(=C/c2cccc([N+](=O)[O-])c2)sc2nc3ccccc3n12`, the TGI in the experiment on ACHN renal, in the experiment with HCT-15 colon, with A498 renal, with SNB-78 CNS and with RXF 393 renal was greater than 100 µM each time.
As for `COc1cccc(C2c3cc4c(cc3OC(C)(O)C2C)OCO4)c1O` (stereo not given), the TGI with ACHN renal is 79.1 µM; in the experiment on HCT-15 colon, 27.8 µM; with NCI-H522 lung it was 5.6 µM; in the experiment with CAKI-1 renal it was 15.7 µM; in the experiment on MDA-MB-435 it was greater than 100 µM; in the experiment with A498 renal it was 18.8 µM. The TGI in the experiment on A549 NSCLC was 66.6 µM; in the experiment on RXF 393 renal it was 34.1 µM.
With `C1=Cc2ccccc2Nc2ccccc21`, the GI50 with ACHN renal, in the experiment with HCT-15 colon, with NCI-H522 lung, in the experiment with CAKI-1 renal, in the experiment with MDA-MB-435 and in the experiment with A498 renal was greater than 100 µM each time. Also, the GI50 in the experiment on A549 NSCLC and with RXF 393 renal was greater than 100 µM throughout. Further, the TGI in the experiment on ACHN renal, in the experiment with HCT-15 colon, with NCI-H522 lung, with CAKI-1 renal, with MDA-MB-435 and in the experiment with A498 renal was greater than 100 µM each time. The TGI with A549 NSCLC and with RXF 393 renal was greater than 100 µM throughout.
As for `CCOc1c(Br)cc(C2C(C(=O)OC)=CN(C)C=C2C(=O)OC)cc1OC`, the GI50 in the experiment on ACHN renal was 77.6 µM; in the experiment with HCT-15 colon, 33.9 µM; in the experiment on NCI-H522 lung, 39.7 µM; in the experiment with CAKI-1 renal it was 44.3 µM; in the experiment with MDA-MB-435, 37.3 µM; in the experiment with A498 renal, 16.5 µM. Further, the values for the GI50 with A549 NSCLC and in the experiment on RXF 393 renal were 47.8 µM and 24.1 µM, respectively. The TGI is greater than 100 µM in the experiment on ACHN renal; greater than 100 µM with HCT-15 colon; greater than 100 µM in the experiment with NCI-H522 lung; greater than 100 µM with CAKI-1 renal; greater than 100 µM with MDA-MB-435; 98.2 µM with A498 renal. Besides, the TGI with A549 NSCLC and in the experiment with RXF 393 renal was greater than 100 µM throughout.
For `COc1cc(/C=C2/C(=O)N(C(=O)OC(C)C)C(Cc3cc(OC)c(OC)c(C)c3OC)C(=O)N2Cc2ccccc2)c(OC)c(C)c1OC` (stereo not given), the TGI with ACHN renal is greater than 100 µM; with NCI-H522 lung, 32 µM; in the experiment with CAKI-1 renal it was greater than 100 µM; in the experiment with KM20L2 colon, greater than 100 µM; in the experiment with A498 renal it was greater than 100 µM; in the experiment with A549 NSCLC, greater than 100 µM. Further, in the experiment with RXF 393 renal, the TGI is greater than 100 µM.
For the compound `O=c1c2cccc(Cl)c2sc2c(NCCCNCCO)nc3ccccc3c12`, the GI50 is 1.44 µM in the experiment with ACHN renal; 1.54 µM in the experiment with HCT-15 colon; 1.99 µM in the experiment on NCI-H522 lung; 3.79 µM in the experiment with CAKI-1 renal; 1.82 µM in the experiment on MDA-MB-435; 5.64 µM in the experiment on A498 renal. The values for the GI50 with A549 NSCLC and in the experiment on RXF 393 renal were 1.31 µM and 1.69 µM, respectively. Moreover, the TGI was 2.8 µM with ACHN renal; 3.33 µM with HCT-15 colon; 4.42 µM in the experiment on NCI-H522 lung; 17.6 µM in the experiment on CAKI-1 renal; 3.55 µM with MDA-MB-435; 19.3 µM in the experiment with A498 renal. Besides, the values for the TGI in the experiment with A549 NSCLC and in the experiment with RXF 393 renal were 3.39 µM and 4 µM, respectively.
